Experimental data: US11634423B2, “Substituted pyrazolo[1,5-a]pyrimidines as inhibitors of interferon signaling” (Eli Lilly and Company, priority 2020, dated 2023)

Assays:
[1] = test system: IL-23 signaling (STAT3 phosphorylation) in Kit225 cells; assay: IL23 pSTAT3 AlphaLISA Assay; type: cell-based; settings: 0.5 h, 1 hour preincubation, IL-23 25 ng/mL for 30 minutes, in presence of IL-2, relative IC50, geometric mean (SEM), read-out: IL-23 inh IC50
Protocol: IL-2-dependent Kit225 cells (University of Texas MD Anderson Cancer Center) expressing endogenous IL-23 receptors are stably transduced with the Lenti STAT3 Reporter linked to firefly luciferase (SABiosciences CLS-6028L). These cells are used to monitor TYK2 activity by quantifying gene expression caused by STAT3 phosporylation following induction by IL-23 in the presence of IL-2 using AlphaLISA technology (TGR Biosciences ALSU-TST3-A50K). The cells are grown in RPMI 1640 (Gibco 22400) supplemented with 10% FBS (Invitrogen 10082), 1× Pen/Strep (Gibco 15140-122), 200 ng/ml Puromycin (Sigma P9620), and fresh 10 ng/ml recombinant human IL-2 (R&D Systems 202-IL-50).
For assay preparation, cells are dispensed into Biocoat black poly-d-lysine coated clear bottom 384-well plates (Becton Dickinson Bio-Coat 35-4640) in DMEM (Sigma D5796) at 300,000 cells/well and allowed to incubate overnight at 37° C. Compounds solubilized in DMSO are serially diluted 1:3 to produce a 10-point concentration response curve (final DMSO=0.1%). Cells are pre-incubated with Example 1 for 1 hour at 37° C., then stimulated with IL-23 (25 ng/mL final) for 30 minutes. After centrifugation at 2000 rpm for 10 minutes, cell pellets are lysed with a mixture of 1:1 lysis buffer (TGR Biosciences) and Halt Protease & Phosphatase inhibitor cocktail (Thermo Scientific 1861281) for 30 minutes. The AlphaLISA reaction is performed following the vendor's recommended protocol, and the luciferase levels are measured using an Envision plate reader (Perkin Elmer). The relative IC50 is calculated using a 4-parameter nonlinear logistic equation (GeneData Screener 13.0.5) to give an IC50 for the compounds tested expressed as GeoMetric means with the standard error of the mean (SEM).

[2] = test system: IFNα signaling through pSTAT1 in TF1 cells; assay: Inhibition of IFNα signaling through pSTAT1 in TF1 cells; type: cell-based; settings: Homo sapiens, TF-1, 1 hour preincubation, 10 ng/mL IFNα2 for 20 minutes, p-Stat1 (Tyr701) AlphaLISA, geometric mean (SEM), read-out: IFNα inh IC50
Protocol: TF1 cells (ATCC, CL-2003) are grown in RPMI 1640 (GIBCO) supplemented with 10% dialyzed FBS, 0.1 mg/mL Ampicillin and 2 ng/mL granulocyte macrophage colony stimulating factor. TF1 cells (100 K per well) are seeded in a 96-well poly-D-lysine coated plates in serum-free DMEM and incubated overnight at 37° C. under 5% CO2. Example 1 is serially diluted in DMSO, added to the cells, and incubated at 37° C. for 1 hour. Cells are then stimulated with 10 ng/mL IFNα2 at 37° C. for 20 minutes. After removing the medium, the cells are lysed in buffer containing Halt protease and phosphatase inhibitor cocktail (Thermo Scientific #78441) at ambient temperature for 30 minutes. The amount of p-Stat1 (Tyr701) is quantified as light emission at 615 nm using the AlphaLISA SureFire Ultra p-Stat1 (Tyr701) assay kit (Perkin Elmer #ALSU-PST1-A50K) following the vendor's recommended protocol. Percent inhibition at each inhibitor concentration is calculated and fit to the four parameter nonlinear logistic equation using Genedata Screener© to give an IC50 for the compounds tested expressed as GeoMetric means with the standard error of the mean (SEM).

[3] = target: T1, pseudokinase domain (JH2) of human TYK2 (Homo sapiens, UniProt P29597); assay: TYK2-JH2 Tracer Binding Assay; settings: TR-FRET tracer displacement, His-tagged TYK2-JH2 0.200 nM, Tracer 2.00 nM, 30 minutes
T1 construct: The pseudokinase domain (JH2) of human JAK; made in house
T1 sequence (P29597 589-875 limits assumed): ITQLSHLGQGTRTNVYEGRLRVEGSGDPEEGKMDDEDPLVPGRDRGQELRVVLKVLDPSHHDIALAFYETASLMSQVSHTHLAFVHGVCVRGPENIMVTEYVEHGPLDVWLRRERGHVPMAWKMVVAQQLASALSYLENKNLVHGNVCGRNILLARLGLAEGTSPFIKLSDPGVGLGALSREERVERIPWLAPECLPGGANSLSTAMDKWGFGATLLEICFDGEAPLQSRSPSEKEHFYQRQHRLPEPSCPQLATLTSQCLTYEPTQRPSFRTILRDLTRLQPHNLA
Excerpt: The pseudokinase domain (JH2) of human JAK (Janus family of cytoplasmic tyrosine kinases) family tyrosine kinase 2 (TYK2) (Genbank NP_003322) with an N-terminal His6 tag is expressed in baculovirus and purified by HisPur Ni-NTA affinity and Superdex 200 size-exclusion chromatography. The compound prepared in Preparation 17, a conjugate of Alexa Fluor 647 dye (Thermo Fisher Scientific) and a suitable TYK2 JH2 binder, is referred to herein as “the Tracer”. A 3 fold, 10 point serial dilution of compound (Examples 1, 2, and 3) are prepared in 100% DMSO and 50 nL/well transferred to a Proxiplate-384F white plate (PerkinElmer 6008280) using acoustic liquid handling. Control wells used to determine percent inhibition contained 100% DMSO (50 nL) and either assay buffer containing the Tracer (2.00 nM final concentration) (min, low FRET) or diluted TYK2-JH2 enzyme (0.200 nM final concentration) and the Tracer (2.00 nM final concentration) (max, high FRET).
5.0 μL of His-tagged TYK2-JH2 (0.402 nM) and LanthaScreen Eu-anti-HIS Ab (4.02 nM, LifeTech, PV5597) in assay buffer (50 mM HEPES […], 10 mM magnesium chloride, 1 mM ethylene glycol-bis(β-aminoethyl ether)-N,N,N′,N′-tetraacetic acid, 0.01% Brij-35 and Milli-Q) water is added to the Proxiplate-384 plate containing the 50 nL of diluted compound and control wells. 5.0 μL of the Tracer (2.00 nM final concentration) in assay buffer is added to the plate and allowed to equilibrate for 30 minutes at ambient temperature. After 30 minutes, the plate is counted on a PerkinElmer Envision with the following settings: Excitation (340 nm), Tracer Emission (665 nm) and LanthaScreen Eu-anti-His Antibody Emission (615 nm). The ratio of Tracer Emission (665 nm) over LanthaScreen Eu-anti-His Antibody Emission (615 nm) is determined. Percent inhibition of ratio at each inhibitor concentration is calculated using the max and min control wells and fit to the four parameter nonlinear logistic equation in GeneData Screener® to give an IC50 for the compounds tested.

Row | IC50 [1] | IC50 [2] | IC50 [3] | Structure (SMILES)
1 | 101 nM | 206 nM | < 0.254 nM | CNc1cc(Nc2cccn(-c3cccc(C)n3)c2=O)nc2c(C(=O)N[C@@H]3CCN(C)C3=O)cnn12 [Example 2, 7-(Methylamino)-N-[(3R)-1-methyl-2-oxo-pyrrolidin-3-yl]-5-[[1-(6-methyl-2-pyridyl)-2-oxo-3-pyridyl]amino]pyrazolo[1,5-a]pyrimidine-3-carboxamide]
2 | 101 nM | 106 nM | < 0.254 nM | CNc1cc(Nc2cccn(-c3ccccn3)c2=O)nc2c(C(=O)N[C@@H]3CCN(C)C3=O)cnn12 [Example 3, 7-(Methylamino)-N-[(3R)-1-methyl-2-oxo-pyrrolidin-3-yl]-5-[[2-oxo-1-(2-pyridyl)-3-pyridyl]amino]pyrazolo[1,5-a]pyrimidine-3-carboxamide]
3 | 65 nM | 112 nM | < 0.254 nM | CNc1cc(Nc2cccn(-c3ccc(C)cn3)c2=O)nc2c(C(=O)N[C@@H]3CCN(C)C3=O)cnn12 [Example 1, 7-(Methylamino)-N-[(3R)-1-methyl-2-oxo-pyrrolidin-3-yl]-5-[[1-(5-methyl-2-pyridyl)-2-oxo-3-pyridyl]amino]pyrazolo[1,5-a]pyrimidine-3-carboxamide]
